Source: ChEMBL document CHEMBL1201862, “PubChem BioAssay data set” (2004)
The source made the active and inactive calls.

Columns and labels:
[1] = A cytotoxicity screen of small molecule inhibitors of the PhoP region in Salmonella typhi identified in the primary screen. [Related pubchem assays: 1850, 1864, 1985 ]; type: functional
Cytochrome P450 3A4 = Cytochrome P450 3A4 (Homo sapiens, UniProt P08684); conditions: Potency;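 note: confirmatory qHTS run detecting inhibitors and substrates of CYP3A4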
[2] = HIV-1 AD8 envelope cell-cell fusion blockers – cherry-pick, dose response (AID 652062); type: functional, cell-based;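 note: luciferase signal from cell-cell fusion driven by HIV-1 clade B AD8 Env; potency is for inhibitors of fusion seen as a drop in luminescence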
[3] = blockers of HIV-1 envelope-mediated cell-cell fusion – cherry-pick, dose response (AID 652057); type: functional, cell-based
[4] = blockers of HIV-1 ZM109 envelope-driven cell-cell fusion – HeLa effector, CEM target cells, luciferase, cherry-pick, dose response (AID 652058); type: functional, cell-based;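 note: luciferase signal from HIV-1 Env mediated cell-cell fusion of effector and target cells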
Estrogen receptor = molecular target: T1, Estrogen receptor (Homo sapiens, UniProt P03372);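 note: potency for inhibiting coactivator peptide recruitment to the receptor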
T1 sequence (P03372 whole entry): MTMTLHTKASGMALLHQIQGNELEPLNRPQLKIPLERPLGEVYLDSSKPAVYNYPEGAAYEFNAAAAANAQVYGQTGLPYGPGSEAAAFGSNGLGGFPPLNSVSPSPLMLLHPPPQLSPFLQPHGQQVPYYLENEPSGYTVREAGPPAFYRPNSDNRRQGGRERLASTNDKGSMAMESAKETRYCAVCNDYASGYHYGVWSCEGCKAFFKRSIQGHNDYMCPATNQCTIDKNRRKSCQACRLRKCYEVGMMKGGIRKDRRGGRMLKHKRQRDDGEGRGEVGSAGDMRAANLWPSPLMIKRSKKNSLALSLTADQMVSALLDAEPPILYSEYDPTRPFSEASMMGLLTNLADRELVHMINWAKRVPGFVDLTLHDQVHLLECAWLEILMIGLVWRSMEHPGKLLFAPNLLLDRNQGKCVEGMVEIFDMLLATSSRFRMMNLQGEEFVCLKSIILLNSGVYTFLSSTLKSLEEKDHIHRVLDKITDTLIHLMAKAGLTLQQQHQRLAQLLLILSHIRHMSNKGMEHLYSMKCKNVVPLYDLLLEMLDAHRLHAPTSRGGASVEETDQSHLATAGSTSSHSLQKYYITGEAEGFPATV

Estrogen receptor beta = Estrogen receptor beta (Homo sapiens, UniProt Q92731); test: blockers of SRC-3 recruitment to ERβ – biochemical, ELISA, streptavidin-HRP readout, orthogonal assay, confirmation (AID 1060)
[5] = reduction of Shn3 3'UTR-driven luciferase in osteoblasts – cell-based, Clone20 osteoblasts, firefly luciferase, cherry-picked, dose response (AID 624132); type: functional;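 note: firefly luciferase luminescence from reporter carrying the Shn3 3'UTR in osteoblasts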
[6] = loss of viability in HepG2 cells – cell-based, CellTiter-Glo, cherry-picked, cytotoxicity control for Shn3 inhibitor project, dose response (AID 624134); type: functional
INS1 = test: INS-1E survival protection against cytokine death – cell-based, luminescence, retest, dose response (AID 449756); type: functional; conditions: Rattus norvegicus;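 note: cell death triggered by IL-1 beta plus TNF-alpha plus IFN-gamma mixture; protective hits raise ATP signal compared with cytokine alone wells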
[7] = non-specific 3'UTR reporter inhibition in Clone20-Shn3RL – cell-based, Renilla luciferase, cherry-picked, counter-screen for Shn3 inhibitor project, dose response (AID 624133); type: functional
cells = type: functional
[8] = THP-1 cell cytotoxicity, dose response, cytotoxicity control for non-replicating M. tuberculosis project (AID 489025); type: functional
[9] = molecular target: Voltage-dependent T-type calcium channel subunit alpha-1H (Homo sapiens, UniProt O95180); type: functional;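 note: channel activity triggered by adding a high calcium stimulation buffer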
[10] = toxicity to human hepatoma HepG2 cells – cell-based, cherry-picked samples, cytotoxicity control, dose response (AID 1159577); type: functional
[11] = P. falciparum Dd2 growth inhibitors, dose response, SYBR Green, cherry-picked samples (AID 1159567); type: functional, cell-based
[12] = Luminescence Cell-Based Dose Confirmation HTS to Identify Inhibitors of Platelet Dense Granule Release. [Related pubchem assays: 1663 (Primary HTS), 1678 (Summary of Project)]; type: functional
[13] = molecular target: Luciferin 4-monooxygenase (Photinus pyralis, UniProt P08659); test: inhibition of purified Photinus pyralis luciferase – biochemical, luminescence, dose response (AID 1891)
[14] = fluconazole-exposed Candida albicans growth modulators – fluorescence, retest, confirmation (AID 2467); type: functional, cell-based
[15] = Trypanosoma cruzi growth suppression in host cells – NIH3T3 host cells, beta-gal luminescence, confirmation (AID 2044); type: functional, cell-based;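 note: intracellular parasites grown in NIH/3T3 mouse fibroblasts as host cells; luminescent beta-galactosidase reporter signal from transgenic T. cruzi replicating inside host cells; inhibitors lower the luminescence signal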
[16] = NIH3T3 cell viability loss – ATP luminescence, mouse fibroblasts, counter-screen, dose response (AID 2010); type: functional, cell-based;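 note: cells exposed to compound for about 90 hours before reading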
[17] = NIH-3T3 fibroblast cytotoxicity, dose response, cytotoxicity control, cell-based, fluorescence, Alamar Blue, secondary assay (AID 2327); type: functional;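 note: NIH-3T3 mouse fibroblasts cultured with fluconazole at 8 µg/mL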
BJ [18] = test: BJ-TERT fibroblast viability loss – cell-based, RAS-independent, luminescence, dose response (AID 1933); type: functional; conditions: Homo sapiens
BJ [19] = test: cells; type: functional, cell-based; conditions: Homo sapiens
BJ [20] = test: BJ-TERT-LT-ST fibroblast viability loss – cell-based, RAS-independent, luminescence, dose response (AID 1935); type: functional; conditions: Homo sapiens;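 note: BJ fibroblasts immortalized with TERT plus LT and ST oncogenes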
[21] = DRD fibroblast viability loss – cell-based, non-viral oncogenic, luminescence, dose response (AID 1934); type: functional; conditions: Homo sapiens

Chain of Cytochrome P450 3A4 (P08684 whole entry, the tested form may be a part): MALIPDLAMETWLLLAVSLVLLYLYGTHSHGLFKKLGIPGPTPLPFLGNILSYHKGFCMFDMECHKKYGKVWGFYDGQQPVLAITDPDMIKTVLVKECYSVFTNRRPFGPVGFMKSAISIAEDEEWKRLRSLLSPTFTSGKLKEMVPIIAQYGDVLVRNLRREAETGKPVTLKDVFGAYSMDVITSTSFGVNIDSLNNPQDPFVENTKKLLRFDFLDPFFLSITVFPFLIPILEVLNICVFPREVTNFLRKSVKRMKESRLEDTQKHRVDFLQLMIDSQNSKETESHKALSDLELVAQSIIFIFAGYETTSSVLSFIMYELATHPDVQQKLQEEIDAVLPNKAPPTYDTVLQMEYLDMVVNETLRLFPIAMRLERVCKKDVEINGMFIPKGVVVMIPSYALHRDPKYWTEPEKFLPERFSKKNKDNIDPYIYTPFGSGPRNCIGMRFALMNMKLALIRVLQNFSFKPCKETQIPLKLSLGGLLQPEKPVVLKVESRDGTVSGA
Chain of Voltage-dependent T-type calcium channel subunit alpha-1H (O95180 whole entry): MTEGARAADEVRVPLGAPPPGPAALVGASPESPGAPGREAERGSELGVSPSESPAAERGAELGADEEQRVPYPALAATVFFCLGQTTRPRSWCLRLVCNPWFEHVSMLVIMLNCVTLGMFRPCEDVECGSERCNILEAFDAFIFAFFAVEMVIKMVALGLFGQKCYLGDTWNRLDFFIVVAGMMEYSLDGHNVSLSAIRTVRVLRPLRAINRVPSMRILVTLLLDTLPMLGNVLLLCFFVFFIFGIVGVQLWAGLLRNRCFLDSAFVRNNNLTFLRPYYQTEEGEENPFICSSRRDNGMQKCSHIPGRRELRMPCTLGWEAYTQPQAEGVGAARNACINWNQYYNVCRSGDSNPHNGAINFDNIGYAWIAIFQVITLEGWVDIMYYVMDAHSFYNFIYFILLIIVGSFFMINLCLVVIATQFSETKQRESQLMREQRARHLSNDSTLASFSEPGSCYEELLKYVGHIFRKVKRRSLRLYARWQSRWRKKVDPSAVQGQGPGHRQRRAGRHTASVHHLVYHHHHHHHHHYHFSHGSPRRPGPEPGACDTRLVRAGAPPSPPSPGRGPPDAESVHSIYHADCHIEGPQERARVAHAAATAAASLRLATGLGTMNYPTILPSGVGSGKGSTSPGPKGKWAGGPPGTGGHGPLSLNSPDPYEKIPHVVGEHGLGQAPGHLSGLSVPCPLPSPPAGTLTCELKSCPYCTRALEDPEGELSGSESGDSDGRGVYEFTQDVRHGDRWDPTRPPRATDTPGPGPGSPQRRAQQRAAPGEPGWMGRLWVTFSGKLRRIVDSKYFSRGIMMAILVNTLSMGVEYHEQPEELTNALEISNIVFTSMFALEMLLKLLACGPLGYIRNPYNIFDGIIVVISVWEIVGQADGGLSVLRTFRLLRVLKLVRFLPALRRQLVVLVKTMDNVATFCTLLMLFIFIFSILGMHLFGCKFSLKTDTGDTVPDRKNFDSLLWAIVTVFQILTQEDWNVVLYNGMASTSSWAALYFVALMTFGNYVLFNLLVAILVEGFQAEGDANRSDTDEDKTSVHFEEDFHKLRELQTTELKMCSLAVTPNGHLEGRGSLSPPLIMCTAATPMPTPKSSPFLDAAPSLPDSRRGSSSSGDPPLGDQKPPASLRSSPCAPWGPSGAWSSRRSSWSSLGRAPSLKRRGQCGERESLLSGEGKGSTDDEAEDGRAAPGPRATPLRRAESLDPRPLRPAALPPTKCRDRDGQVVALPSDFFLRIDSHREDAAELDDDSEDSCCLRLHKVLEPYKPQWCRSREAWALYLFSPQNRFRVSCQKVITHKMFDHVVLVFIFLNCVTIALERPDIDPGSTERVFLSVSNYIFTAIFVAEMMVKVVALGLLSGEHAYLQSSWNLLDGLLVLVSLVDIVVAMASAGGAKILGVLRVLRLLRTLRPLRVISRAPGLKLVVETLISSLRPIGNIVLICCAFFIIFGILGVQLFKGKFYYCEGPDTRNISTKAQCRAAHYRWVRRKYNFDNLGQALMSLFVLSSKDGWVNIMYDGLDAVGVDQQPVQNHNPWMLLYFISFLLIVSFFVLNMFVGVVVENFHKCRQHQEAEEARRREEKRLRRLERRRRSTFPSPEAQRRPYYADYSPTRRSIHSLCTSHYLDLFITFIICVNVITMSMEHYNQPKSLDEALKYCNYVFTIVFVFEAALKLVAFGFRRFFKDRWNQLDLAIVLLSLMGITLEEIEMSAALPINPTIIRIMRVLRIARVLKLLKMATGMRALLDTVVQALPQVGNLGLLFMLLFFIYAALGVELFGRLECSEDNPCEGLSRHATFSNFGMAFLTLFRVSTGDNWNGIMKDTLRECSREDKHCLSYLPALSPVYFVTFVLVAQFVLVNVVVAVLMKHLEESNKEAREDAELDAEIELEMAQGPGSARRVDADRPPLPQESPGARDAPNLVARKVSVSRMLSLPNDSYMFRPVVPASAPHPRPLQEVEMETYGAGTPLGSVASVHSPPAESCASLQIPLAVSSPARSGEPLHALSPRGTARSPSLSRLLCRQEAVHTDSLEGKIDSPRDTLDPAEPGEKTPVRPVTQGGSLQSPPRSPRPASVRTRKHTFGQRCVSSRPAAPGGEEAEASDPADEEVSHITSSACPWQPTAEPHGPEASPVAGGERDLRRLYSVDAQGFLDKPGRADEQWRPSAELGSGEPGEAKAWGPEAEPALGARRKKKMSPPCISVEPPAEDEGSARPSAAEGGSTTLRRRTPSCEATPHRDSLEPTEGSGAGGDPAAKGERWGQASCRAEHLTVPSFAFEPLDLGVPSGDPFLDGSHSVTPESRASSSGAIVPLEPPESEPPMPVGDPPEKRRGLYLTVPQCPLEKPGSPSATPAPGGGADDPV
Chain of Luciferin 4-monooxygenase (P08659 whole entry): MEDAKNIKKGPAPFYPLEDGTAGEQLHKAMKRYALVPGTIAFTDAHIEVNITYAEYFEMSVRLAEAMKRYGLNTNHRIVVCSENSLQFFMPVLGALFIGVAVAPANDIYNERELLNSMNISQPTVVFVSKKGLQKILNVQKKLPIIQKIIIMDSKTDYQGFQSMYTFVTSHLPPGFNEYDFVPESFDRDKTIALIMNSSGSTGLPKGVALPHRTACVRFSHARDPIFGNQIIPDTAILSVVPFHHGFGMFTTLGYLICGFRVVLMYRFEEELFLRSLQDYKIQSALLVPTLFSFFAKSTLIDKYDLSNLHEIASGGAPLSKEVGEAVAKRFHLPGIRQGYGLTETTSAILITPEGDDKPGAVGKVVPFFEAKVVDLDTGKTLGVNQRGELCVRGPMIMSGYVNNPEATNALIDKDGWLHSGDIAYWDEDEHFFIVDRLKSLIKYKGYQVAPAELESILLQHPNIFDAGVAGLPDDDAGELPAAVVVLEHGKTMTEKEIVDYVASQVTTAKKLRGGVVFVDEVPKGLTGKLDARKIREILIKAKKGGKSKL
Chain of Estrogen receptor beta (Q92731 whole entry): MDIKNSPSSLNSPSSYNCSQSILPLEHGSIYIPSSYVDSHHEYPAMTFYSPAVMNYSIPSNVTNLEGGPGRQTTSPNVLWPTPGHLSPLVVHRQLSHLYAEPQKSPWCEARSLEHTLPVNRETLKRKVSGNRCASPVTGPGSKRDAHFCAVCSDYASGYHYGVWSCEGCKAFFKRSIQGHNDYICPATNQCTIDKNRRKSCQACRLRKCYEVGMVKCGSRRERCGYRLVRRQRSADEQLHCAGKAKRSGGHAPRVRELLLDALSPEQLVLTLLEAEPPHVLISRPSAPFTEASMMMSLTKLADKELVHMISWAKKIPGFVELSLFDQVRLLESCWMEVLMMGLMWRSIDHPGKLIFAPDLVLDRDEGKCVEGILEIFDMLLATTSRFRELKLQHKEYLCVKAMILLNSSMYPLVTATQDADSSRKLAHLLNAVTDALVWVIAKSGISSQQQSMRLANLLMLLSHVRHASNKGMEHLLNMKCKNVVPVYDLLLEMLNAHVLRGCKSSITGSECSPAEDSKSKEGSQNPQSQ

Q: With C=CCn1c(O)c(N=NC(=O)c2cccnc2)c2cc(Br)ccc21 as the molecule, how does the EC50 [1] read?
A: Its EC50 is > 50 µM (active).

Q: For COC(=O)c1c(C)cc(O)cc1O [METHYL ORSELLINATE], which AC50 (Cytochrome P450 3A4) is on record?
A: The AC50 was 12.6 µM (inconclusive).

Q: With COc1ccccc1NC(=O)N[C@@H]1CC[C@H](CC(=O)N[C@H](C)c2ccccc2)O[C@@H]1CO as the molecule, how does the AC50 [2] read?
A: Its AC50 is 2.61 µM (active).

Q: And the AC50 [3]?
A: The AC50 was 0.97 µM (active).

Q: What about the AC50 [4] of the same molecule?
A: The AC50 was < 0.26 µM (active).

Q: For CCOC(=O)C1CCCN(C(=O)c2cc3ncc(Br)cn3n2)C1 (stereo not drawn), which IC50 (Estrogen receptor) is on record?
A: The IC50 was 20.7 µM (active).

Q: What about the IC50 (Estrogen receptor beta) of the same molecule?
A: Its IC50 is 0.0694 µM (not active).

Q: With COc1c2ccoc2nc2c(OC)c(OCC(O)C(C)(C)O)ccc12 (stereo not drawn) [EVOXINE] as the molecule, how does the AC50 (Cytochrome P450 3A4) read?
A: The AC50 was 15.8 µM (inconclusive).

Q: Which AC50 [5] does the source give for Cc1ccc(C(=O)Nc2cccc3[nH]c(C(F)(F)F)nc23)cc1 here?
A: The AC50 was 3.93 µM (active).

Q: What about the AC50 [6] of the same molecule?
A: The AC50 was 33.6 µM (active).

Q: What about the AC50 (INS1) of the same molecule?
A: The AC50 was 7.25 µM (active).

Q: And the AC50 [7]?
A: The AC50 was 10.3 µM (active).

Q: Which AC50 (Cytochrome P450 3A4) does the source give for COc1cccc2oc(-c3ccccc3)cc(=O)c12 here?
A: Its AC50 is 31.6 µM (inconclusive).

Q: With Nc1ncnc(Oc2cccc3cccnc23)c1[N+](=O)[O-] as the molecule, how does the IC50 (cells) read?
A: The IC50 was 10.8 µM (active).

Q: What about the CC50 [8] of the same molecule?
A: The CC50 was 39.5 µM (active).

Q: Which EC50 [9] does the source give for Oc1ccc(C(c2nnnn2C2CCCC2)N2CCc3ccccc3C2)cc1 (stereo not drawn) here?
A: Its EC50 is 5.95 µM (active).

Q: With C/C(=N\NC(=O)COc1ccccc1[N+](=O)[O-])c1cccs1 as the molecule, how does the EC50 [1] read?
A: Its EC50 is > 50 µM (active).

Q: For C[C@@H]1CN([C@H](C)CO)S(=O)(=O)c2ccc(/C=C/c3ccccc3)cc2O[C@H]1CN(C)Cc1cccnc1, which AC50 [10] is on record?
A: The AC50 was 19.7 µM (active).

Q: What about the AC50 [11] of the same molecule?
A: The AC50 was 3.7 µM (active).

Q: With COC1C=CC23c4cc5c(cc4CN(CC2O)C3C1)OCO5 (stereo not drawn) as the molecule, how does the AC50 (Cytochrome P450 3A4) read?
A: Its AC50 is 39.8 µM (inconclusive).

Q: For Clc1ccc(CNCc2cccs2)cc1Cl, which EC50 [1] is on record?
A: Its EC50 is > 50 µM (active).

Q: For O=C1NC(=O)C2(CCC(C(=O)O)C2)N1 (stereo not drawn), which EC50 [12] is on record?
A: Its EC50 is > 112 µM (not active).

Q: And the EC50 [13]?
A: Its EC50 is > 112 µM (not active).

Q: With CCOC(=O)c1cc2cc([N+](=O)[O-])ccc2oc1=O as the molecule, how does the EC50 [12] read?
A: The EC50 was > 112 µM (not active).

Q: What about the EC50 [13] of the same molecule?
A: Its EC50 is > 112 µM (not active).

Q: With Cc1nc(CS(=O)(=O)c2ccc(Cl)cc2)cc(Sc2ccc(Cl)cc2)n1 as the molecule, how does the EC50 [9] read?
A: The EC50 was 4.35 µM (active).

Q: For CC(C)(C)n1nnnc1C(c1ccc(F)cc1)N(Cc1ccc(F)cc1)Cc1ccco1 (stereo not drawn), which AC50 (INS1) is on record?
A: Its AC50 is 8.41 µM (active).

Q: What about the EC50 [9] of the same molecule?
A: The EC50 was 2.6 µM (active).

Q: For CC(C)N(C[C@H]1N[C@H](CO)[C@@H]1c1ccc(C2=CCCC2)cc1)C(=O)CN(C)C, which AC50 [10] is on record?
A: The AC50 was > 39 µM (inactive).

Q: What about the AC50 [11] of the same molecule?
A: Its AC50 is 5.21 µM (active).

Q: Which IC50 (Estrogen receptor beta) does the source give for COc1ccc(NC(=O)c2cc(-c3ccc(C)o3)nc3ccccc23)cc1OC here?
A: The IC50 was 24.7 µM (not active).

Q: For COC(=O)c1ccc(C(/C=C/[C@@H](C)C(=O)N(C)C)NC(=O)OCc2ccccc2)cc1 (stereo partly drawn), which AC50 (Cytochrome P450 3A4) is on record?
A: The AC50 was 10 µM (inconclusive).

Q: For COc1ccc(C#Cc2ccc([C@@H]3[C@H](CO)N4CCCCN(Cc5ccncc5)C[C@@H]34)cc2)cc1, which AC50 [10] is on record?
A: The AC50 was 13.6 µM (active).

Q: What about the AC50 [11] of the same molecule?
A: Its AC50 is 0.949 µM (active).

Q: Which IC50 (cells) does the source give for O=C(NCCCN1CCOCC1)c1c(O)nc2c(Br)cc(Br)cc2c1O here?
A: The IC50 was 1.04 µM (active).

Q: What about the CC50 [8] of the same molecule?
A: Its CC50 is > 40 µM (active).

Q: With C[C@H](CO)N1C[C@H](C)[C@@H](CN(C)C(=O)Nc2cccc3ccccc23)OCCCC[C@H](C)Oc2ccc(N(C)C)cc2C1=O as the molecule, how does the AC50 [4] read?
A: The AC50 was 24.8 µM (active).

Q: For COc1cccc(CN2CC3(CCN(CC4CC4)CC3)c3c([nH]c4cc(OC)ccc34)[C@H]2CO)c1, which AC50 [10] is on record?
A: The AC50 was 19.7 µM (active).

Q: What about the AC50 [11] of the same molecule?
A: The AC50 was 5 µM (active).

Q: Which EC50 [14] does the source give for Cc1ccc(CC(=O)Nc2ncc([N+](=O)[O-])s2)cc1 here?
A: The EC50 was 0.033 µM (active).

Q: What about the EC50 [15] of the same molecule?
A: Its EC50 is 0.687 µM (active).

Q: And the EC50 [1]?
A: The EC50 was > 50 µM (active).

Q: And the EC50 [16]?
A: Its EC50 is > 30 µM (not active).

Q: And the EC50 [17]?
A: The EC50 was 37.3 µM (active).

Q: Which results are given for O=C(NCN1CCN(c2ccccn2)CC1)c1cnccn1?
A: EC50 [12]: > 112 µM (not active); EC50 [13]: > 112 µM (not active)

Q: With COc1ccccc1-c1c(C(F)(F)F)n[nH]c1-c1ccc(O)cc1O as the molecule, how does the AC50 [5] read?
A: Its AC50 is 0.708 µM (active).

Q: And the AC50 [2]?
A: Its AC50 is 19 µM (active).

Q: And the AC50 [6]?
A: Its AC50 is > 70 µM (inactive).

Q: What about the AC50 [7] of the same molecule?
A: Its AC50 is 1.42 µM (active).

Q: What about the AC50 [4] of the same molecule?
A: Its AC50 is 0.97 µM (active).

Q: For CC1(C)CC[C@]2(C(=O)O)CC[C@@]3(C)C(=CCC4[C@@]5(C)CCC(O)[C@@](C)(CO)C5CC[C@@]43C)C2C1 (stereo partly drawn), which AC50 (Cytochrome P450 3A4) is on record?
A: The AC50 was 12.6 µM (inconclusive).

Q: For O=C(Nc1cccnc1)c1cc(Br)c(Br)s1, which EC50 [1] is on record?
A: The EC50 was > 50 µM (active).

Q: Which results are given for COc1cc(SC)ccc1C(=O)NNC(=O)c1cc(C)oc1C?
A: EC50 (BJ [18]): 3.71 µM (inconclusive); EC50 [12]: 8.87 µM (active); EC50 (BJ [19]): 6.06 µM (active); EC50 [13]: 1.4 µM (active); EC50 (BJ [20]): 18.2 µM (active); EC50 [21]: 3.82 µM (active)

Q: For O=C(CSCc1nc2ccccc2[nH]1)N1CCN(c2cccc(Cl)c2)CC1, which EC50 [9] is on record?
A: The EC50 was 3.55 µM (active).

Q: Which results are given for C[C@H](CO)N1C[C@H](C)[C@H](CN(C)S(=O)(=O)c2ccc(Cl)cc2)Oc2ccc(NC(=O)C3CCCCC3)cc2CC1=O?
A: AC50 [2]: 20.1 µM (active); AC50 [3]: 1.36 µM (active); AC50 [4]: 2.13 µM (active)
